± gives the expanded uncertainty stated by the source.
Key:
[1] = molar heat capacity at constant pressure; mn = molality of the nth substance listed, in mol/kg; conditions: 350 kPa, Liquid
[2] = mn = molality of the nth substance listed, in mol/kg; conditions: 350 kPa, Liquid

N[C@@H](CC(=O)O)C(=O)O [L-aminosuccinic acid] + O
Conditions | mass density, m1 = 0.002 [kg/m3] | mass density, m1 = 0.004 [kg/m3] | mass density, m1 = 0.00601 [kg/m3] | mass density, m1 = 0.00801 [kg/m3] | mass density, m1 = 0.01 [kg/m3] | molar heat capacity at constant pressure, m1 = 0.002 [J/K/mol] | molar heat capacity at constant pressure, m1 = 0.004 [J/K/mol] | molar heat capacity at constant pressure, m1 = 0.00601 [J/K/mol] | molar heat capacity at constant pressure, m1 = 0.00801 [J/K/mol] | molar heat capacity at constant pressure, m1 = 0.01 [J/K/mol]
[1], 278.15 K | – | – | – | – | – | 75.71 ± 0.3 | 75.71 ± 0.3 | 75.71 ± 0.3 | 75.71 ± 0.3 | 75.71 ± 0.3
[1], 283.15 K | – | – | – | – | – | 75.54 ± 0.3 | 75.54 ± 0.3 | 75.54 ± 0.3 | 75.54 ± 0.3 | 75.54 ± 0.3
[1], 288.15 K | – | – | – | – | – | 75.42 ± 0.3 | 75.42 ± 0.3 | 75.43 ± 0.3 | 75.43 ± 0.3 | 75.42 ± 0.3
[1], 293.15 K | – | – | – | – | – | 75.34 ± 0.3 | 75.34 ± 0.3 | 75.35 ± 0.3 | 75.35 ± 0.3 | 75.35 ± 0.3
[1], 298.15 K | – | – | – | – | – | 75.29 ± 0.3 | 75.29 ± 0.3 | 75.3 ± 0.3 | 75.3 ± 0.3 | 75.3 ± 0.3
[1], 303.15 K | – | – | – | – | – | 75.26 ± 0.3 | 75.26 ± 0.3 | 75.27 ± 0.3 | 75.27 ± 0.3 | 75.27 ± 0.3
[1], 308.15 K | – | – | – | – | – | 75.25 ± 0.3 | 75.25 ± 0.3 | 75.25 ± 0.3 | 75.26 ± 0.3 | 75.26 ± 0.3
[1], 313.15 K | – | – | – | – | – | 75.25 ± 0.3 | 75.25 ± 0.3 | 75.25 ± 0.3 | 75.26 ± 0.3 | 75.26 ± 0.3
[1], 318.15 K | – | – | – | – | – | 75.26 ± 0.3 | 75.26 ± 0.3 | 75.27 ± 0.3 | 75.27 ± 0.3 | 75.27 ± 0.3
[1], 323.15 K | – | – | – | – | – | 75.28 ± 0.3 | 75.28 ± 0.3 | 75.29 ± 0.3 | 75.29 ± 0.3 | 75.29 ± 0.3
[1], 328.15 K | – | – | – | – | – | 75.31 ± 0.3 | 75.32 ± 0.3 | 75.32 ± 0.3 | 75.33 ± 0.3 | 75.33 ± 0.3
[1], 333.15 K | – | – | – | – | – | 75.35 ± 0.3 | 75.36 ± 0.3 | 75.36 ± 0.3 | 75.37 ± 0.3 | 75.37 ± 0.3
[1], 338.15 K | – | – | – | – | – | 75.4 ± 0.3 | 75.41 ± 0.3 | 75.41 ± 0.3 | 75.41 ± 0.3 | 75.42 ± 0.3
[1], 343.15 K | – | – | – | – | – | 75.46 ± 0.3 | 75.47 ± 0.3 | 75.47 ± 0.3 | 75.47 ± 0.3 | 75.48 ± 0.3
[1], 348.15 K | – | – | – | – | – | 75.52 ± 0.3 | 75.53 ± 0.3 | 75.53 ± 0.3 | 75.54 ± 0.3 | 75.54 ± 0.3
[1], 353.15 K | – | – | – | – | – | 75.6 ± 0.3 | 75.61 ± 0.3 | 75.61 ± 0.3 | 75.61 ± 0.3 | 75.61 ± 0.3
[1], 358.15 K | – | – | – | – | – | 75.68 ± 0.3 | 75.69 ± 0.3 | 75.69 ± 0.3 | 75.69 ± 0.3 | 75.69 ± 0.3
[1], 363.15 K | – | – | – | – | – | 75.76 ± 0.3 | 75.77 ± 0.3 | 75.77 ± 0.3 | 75.78 ± 0.3 | 75.78 ± 0.3
[1], 368.15 K | – | – | – | – | – | 75.86 ± 0.3 | 75.87 ± 0.3 | 75.87 ± 0.3 | 75.87 ± 0.3 | 75.87 ± 0.3
[1], 373.15 K | – | – | – | – | – | 75.96 ± 0.3 | 75.97 ± 0.3 | 75.97 ± 0.3 | 75.97 ± 0.3 | 75.98 ± 0.3
[1], 378.15 K | – | – | – | – | – | 76.07 ± 0.3 | 76.08 ± 0.3 | 76.08 ± 0.3 | 76.09 ± 0.3 | 76.09 ± 0.3
[1], 383.15 K | – | – | – | – | – | 76.2 ± 0.3 | 76.2 ± 0.3 | 76.2 ± 0.3 | 76.21 ± 0.3 | 76.21 ± 0.3
[1], 388.15 K | – | – | – | – | – | 76.33 ± 0.3 | 76.34 ± 0.3 | 76.33 ± 0.3 | 76.34 ± 0.3 | 76.34 ± 0.3
[1], 393.15 K | – | – | – | – | – | 76.47 ± 0.31 | 76.48 ± 0.31 | 76.48 ± 0.31 | 76.48 ± 0.31 | 76.48 ± 0.31
[2], 278.15 K | 1000.34 ± 0.17 | 1000.29 ± 0.17 | 1000.42 ± 0.17 | 1000.62 ± 0.17 | 1000.79 ± 0.17 | – | – | – | – | –
[2], 283.15 K | 1000.09 ± 0.17 | 1000.05 ± 0.17 | 1000.2 ± 0.17 | 1000.36 ± 0.17 | 1000.48 ± 0.17 | – | – | – | – | –
[2], 288.15 K | 999.47 ± 0.17 | 999.41 ± 0.17 | 999.59 ± 0.17 | 999.76 ± 0.17 | 999.84 ± 0.17 | – | – | – | – | –
[2], 298.15 K | 997.39 ± 0.17 | 997.34 ± 0.17 | 997.51 ± 0.17 | 997.69 ± 0.17 | 997.73 ± 0.17 | – | – | – | – | –
[2], 308.15 K | 994.35 ± 0.18 | 994.31 ± 0.18 | 994.5 ± 0.18 | 994.64 ± 0.18 | 994.7 ± 0.18 | – | – | – | – | –
[2], 318.15 K | 990.53 ± 0.19 | 990.51 ± 0.19 | 990.66 ± 0.19 | 990.76 ± 0.19 | 990.87 ± 0.19 | – | – | – | – | –
[2], 328.15 K | 985.99 ± 0.2 | 986.02 ± 0.2 | 986.15 ± 0.2 | 986.25 ± 0.2 | 986.33 ± 0.2 | – | – | – | – | –
[2], 338.15 K | 980.85 ± 0.21 | 980.89 ± 0.21 | 981.01 ± 0.21 | 981.13 ± 0.21 | 981.18 ± 0.21 | – | – | – | – | –
[2], 348.15 K | 975.14 ± 0.22 | 975.19 ± 0.22 | 975.26 ± 0.22 | 975.41 ± 0.22 | 975.51 ± 0.22 | – | – | – | – | –
[2], 358.15 K | 968.93 ± 0.23 | 968.98 ± 0.23 | 969.03 ± 0.23 | 969.18 ± 0.23 | 969.3 ± 0.23 | – | – | – | – | –
[2], 368.15 K | 962.17 ± 0.25 | 962.28 ± 0.25 | 962.3 ± 0.25 | 962.49 ± 0.25 | 962.59 ± 0.25 | – | – | – | – | –

Source: the NIST ThermoML archive (doi:10.1016/j.jct.2006.08.008)
